From US20140357512A1, “HISTONE DEACETYLASE (HDAC) BIOMARKERS IN MULTIPLE MYELOMA” (priority 2013, published 2014)

Test system: human myeloma cell line MM.1S
Assay: SILAC acetylated-lysine peptide profiling, HDAC inhibitor vs DMSO (light/heavy ratio)
Type: cell-based
Description: An embodiment of the invention comprises utilizing the SILAC method in order to quantitate changes in protein expression between two or more populations of cells. The SILAC method is a technique based on mass spectrometry that detects differences in protein abundance among samples using non-radioactive isotopic labeling. The SILAC method is known in the art, and described in detail in Ong et al., “Stable Isotope Labeling by Amino Acids in Cell Culture, SILAC, as a Simple and Accurate Approach to Expression Proteomics”, Molecular & Cellular Proteomics, vol. 1, pp. 376-386 (2002), which is incorporated herein by reference in its entirety.
Briefly, the SILAC method involves growing two populations of cells in cell culture. The first population of cells is grown in growth media containing normal amino acids (“normal media”). The second population of cells is grown in media lacking a standard essential amino acid (such as lysine), but is then supplemented with a non-radioactive, isotopically labeled form of that essential amino acid (such as lysine labeled with ^13C atoms, rather than normal ^12C atoms), which is called “heavy media”. When the two populations of cells are each growing in the medium, they incorporate the amino acids into all of their proteins. The growth of cells maintained in the heavy media is no different from that in normal media. All peptides containing the heavy amino acids are heavier than their normal counterparts. The cells from each of the two populations of cells are lysed. The lysates from each of the two cell populations are then combined. The combined cell lysates are then analyzed by mass spectrometry. Pairs of chemically identical peptides of different stable isotope composition can be differentiated in a mass spectrometer due to their difference in mass. The ratio of peak intensities in the mass spectrum for such peptide pairs reflects the abundance ratio for the two proteins.
This example describes SILAC studies that were performed to compare the effects of three different HDAC inhibitors (Compound A, Compound B, and tubastatin A) to a control on a human multiple myeloma cell line. The HDAC inhibitors were also compared amongst themselves to determine differences in their effects.
A human myeloma cell line MM.1S was grown using either ^12C (light) or ^13C (heavy) lysine containing culture medium. The “heavy” cells were treated with DMSO as the control, and the “light” cells were treated with a single HDAC inhibitor at 37° C. for 6 hours. The heavy and light cells were lysed, and the lysates were mixed in 1:1 ratio and digested with the protease trypsin. The acetylated lysine containing peptides (due to the action of the HDAC inhibitor) in the digested peptide pool were captured by a non-specific anti-acetylated lysine antibody cocktail (the antibodies identify both light and heavy acetylated peptides), and subjected to mass spectrometry analysis in order to identify thousands of individual peptides.
Thousands of peptides were identified in pairs (^12C and ^13C) due to their known mass differences. The amino acid sequence and quantitative ratio (Light/Heavy) of a given peptide in two differentially treated cell lysates were then determined and annotated with their possible protein (gene) sources.
As stated above, three HDAC inhibitors (Compound A, Compound B, and Tubastatin A) were used. Thus, the SILAC method was performed three times, with a different HDAC inhibitor compared to a control each time. Accordingly, there are three pairs of quantitative data in the table below, i.e., Compound A:DMSO, Compound B:DMSO, and Tubastatin A:DMSO. A cut-off of 1.30 fold of change (increase or decrease) was then used to determine “changed” or “+” in the table, and any peptides with a fold of change less than 1.3 fold were determined to be “unchanged” or “0” in the table. Those peptides that were not identified were marked as “NA” in the table. […]

Compound: O=C(NO)c1cnc(NC2(c3cccc(F)c3)CCCCC2)nc1 [Compound B, 2-((1-(3-fluorophenyl)cyclohexyl)amino)-N-hydroxypyrimidine-5-carboxamide]
- light to heavy ratio (L/H ratio) of acetylated peptide, log 2 scale (NK(ac)[…] (SEQ ID NO: 237), Vesicle-associated membrane protein 8 [47], VAMP8): 0.00
- light to heavy ratio (L/H ratio) of acetylated peptide, log 2 scale (NLDK(ac)[…] (SEQ ID NO: 159), Aspartate aminotransferase mitochondrial [94], GOT2): 0.00
- L/H ratio of acetylated peptide (NLK(ac)NEITK (SEQ ID NO: 380), Isoform 1 of Coatomer subunit alpha [441], COPA): 0.40 log 2
- L/H ratio of acetylated peptide (NLPFSVENK(ac)WSLLAK (SEQ ID NO: 382), Cytochrome c oxidase subunit 7C mitochondrial [34], COX7C): −0.87 log 2
- L/H ratio of acetylated peptide ADKDYHFK(ac)[…] (SEQ ID NO: 61) (NPM1 [32], log 2 scale, drug vs DMSO): 0.00
- L/H ratio of acetylated peptide GVTQFGNK(ac)[…] (SEQ ID NO: 18) (NUDT21 [23], log 2 scale, drug vs DMSO): 0.50
- L/H ratio of acetylated peptide (NVQQTVSAK(ac)GPPEK(ac)R (SEQ ID NO: 416), Mediator of RNA polymerase II transcription subunit 6 [243:248], MED6): 0.49 log 2
- L/H ratio of acetylated peptide (NVYK(ac)FELDTSER (SEQ ID NO: 444), Dolichyl-diphosphooligosaccharide--protein glycosyltransferase subunit 2 [460], RPN2): 0.54 log 2
- light to heavy ratio (L/H ratio) of acetylated peptide FCLSK(ac)PGVYK (SEQ ID NO: 345) (Nodal modulator 1 [630], NOMO3, NOMO1, drug:DMSO): 0.59 log 2
- light to heavy ratio (L/H ratio) of acetylated peptide […](ac)R (SEQ ID NO: 532) (Nucleosome assembly protein 1-like 1 [116], gene NAP1L1, inhibitor:DMSO): 0.00 log 2
- L/H ratio of acetylated peptide PSHLTNK(ac)FEDK (SEQ ID NO: 65) (PDIA3 [214], log 2 scale, drug vs DMSO): 0.00
- L/H ratio of acetylated peptide GEK(ac)FVMQEEFSR (SEQ ID NO: 64) (PDIA3 [335], log 2 scale, drug vs DMSO): 0.00
- L/H ratio of acetylated peptide SLLGK(ac)DVLFLK (SEQ ID NO: 67) (PGK1 [91], log 2 scale, drug vs DMSO): 0.00
- L/H ratio of acetylated peptide SIYGEK(ac)FEDENFILK (SEQ ID NO: 68) (PPIA [82], log 2 scale, drug vs DMSO): 0.00
- L/H ratio of acetylated peptide VIFGLFGK(ac)TVPK (SEQ ID NO: 70) (PPIB [67], log 2 scale, drug vs DMSO): 0.00
- L/H ratio of acetylated peptide TVPK(ac)[…] (SEQ ID NO: 69) (PPIB [71], log 2 scale, drug vs DMSO): 0.00
- L/H ratio of acetylated peptide VIK(ac)[…] (SEQ ID NO: 71) (PPIB [98], log 2 scale, drug vs DMSO): 0.00
- L/H ratio of acetylated peptide IYGFYDECK(ac)R (SEQ ID NO: 72) (PPP1CC [141], log 2 scale, drug vs DMSO): 0.00
- light to heavy ratio (L/H ratio) of acetylated peptide TAWLDGK(ac)HVVFGK (SEQ ID NO: 592) (Peptidyl-prolyl cis-trans isomerase B [165], gene PPIB, inhibitor:DMSO): 0.00 log 2
- light to heavy ratio (L/H ratio) of acetylated peptide FPDENFK(ac)LK (SEQ ID NO: 347) (Peptidyl-prolyl cis-trans isomerase C [123], PPIC, drug:DMSO): −1.00 log 2
- light to heavy ratio (L/H ratio) of acetylated peptide HVVFGK(ac)VK (SEQ ID NO: 576) (Peptidylprolyl isomerase A (Cyclophilin A) (PPIA) pseudogene [141], gene PPIAP26, inhibitor:DMSO): 0.00 log 2
- light to heavy ratio (L/H ratio) of acetylated peptide LAK(ac)YFFNK (SEQ ID NO: 604) (Periodic tryptophan protein 2 homolog [279], gene PWP2, inhibitor:DMSO): 0.00 log 2
- light to heavy ratio (L/H ratio) of acetylated peptide […](ac)DELKK (SEQ ID NO: 346) (Poly [ADP-ribose] polymerase 1 [249], PARP1, drug:DMSO): 0.83 log 2
- light to heavy ratio (L/H ratio) of acetylated peptide FVVEK(ac)AEQQK (SEQ ID NO: 263) (Prohibitin [202], PHB, drug:DMSO): 0.00 log 2
- light to heavy ratio (L/H ratio) of acetylated peptide FEYK(ac)YSFK (SEQ ID NO: 340) (Protein ERGIC-53 [49], LMAN1, drug:DMSO): −0.52 log 2
- light to heavy ratio (L/H ratio) of acetylated peptide HFAFK(ac)[…] (SEQ ID NO: 554) (Protein FAM3C [72], gene FAM3C, inhibitor:DMSO): 0.00 log 2
- light to heavy ratio (L/H ratio) of acetylated peptide GYPTIK(ac)FFR (SEQ ID NO: 541) (Protein disulfide-isomerase [103], gene P4HB, inhibitor:DMSO): 0.00 log 2
- light to heavy ratio (L/H ratio) of acetylated peptide THILLFLPK(ac)SVSDYDGK (SEQ ID NO: 297) (Protein disulfide-isomerase [263], P4HB, drug:DMSO): 0.00 log 2
- light to heavy ratio (L/H ratio) of acetylated peptide VLVGK(ac)[…] (SEQ ID NO: 303) (Protein disulfide-isomerase [375], P4HB, drug:DMSO): 0.00 log 2
- light to heavy ratio (L/H ratio) of acetylated peptide […](ac)K (SEQ ID NO: 286) (Protein disulfide-isomerase [385], P4HB, drug:DMSO): 0.00 log 2
- light to heavy ratio (L/H ratio), log 2 scale, acetylated peptide VYK(ac)EMYK (SEQ ID NO: 777) (Putative annexin A2-like protein [148], gene ANXA2P2, drug:DMSO): 0.00
- light to heavy ratio (L/H ratio), log 2 scale, acetylated peptide SVPHLQK(ac)VFDR (SEQ ID NO: 776) (Putative annexin A2-like protein [227], gene ANXA2P2, drug:DMSO): 0.00
